The results in this text go back to US12599136B2, “Substituted isophthalic acid diamides and their use as herbicides” (Bayer Aktiengesellschaft, priority 2020, dated 2026).

Assay type in all cases: in vivo
Assay [1] relates to Abutilon theophrasti. Nature of the assay: Pre-emergence herbicidal action against ABUTH. The settings on record: visual score after 3 weeks vs untreated controls. The method, boiled down: (§1)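 Pre-emergence soil-surface spray of formulated compound (WP or EC; 600 to 800 l/ha; 0.2% wetting agent) over seeds sown in sandy loam. After 3 weeks under greenhouse conditions, damage is estimated visually in percent against untreated plants.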

In assay [2] the test system is Alopecurus myosuroides. Briefly: Pre-emergence herbicidal action against ALOMY. As to conditions: 80 g/ha; visual score after 3 weeks vs untreated controls. The essentials: as §1
In assay [3] the test system is Amaranthus retroflexus. Briefly: Pre-emergence herbicidal action against AMARE. The settings on record: visual score after 3 weeks vs untreated controls. The essentials:
as §1

The test system of assay [4] is Avena fatua. Nature of the assay: Pre-emergence herbicidal action against AVEFA. The settings on record: 80 g/ha; visual score after 3 weeks vs untreated controls. The essentials:
as §1

Assay [5] deals with Echinochloa crus-galli. Nature of the assay: Pre-emergence herbicidal action against ECHCG. The settings on record: 80 g/ha; visual score after 3 weeks vs untreated controls. The essentials:
as §1

Another assay relates to Matricaria inodora. Nature of the assay: Pre-emergence herbicidal action against MATIN. The settings on record: 80 g/ha; visual score after 3 weeks vs untreated controls. The method, boiled down:
as §1

The test system of assay [6] is Digitaria sanguinalis. Nature of the assay: Pre-emergence herbicidal action against DIGSA. The method, boiled down:
as §1

Assay [7] deals with Setaria viridis. Nature of the assay: Pre-emergence herbicidal action against SETVI. The settings on record: 80 g/ha. The method, boiled down: as §1
Assay [8] has as its system Viola tricolor. Nature of the assay: Pre-emergence herbicidal action against VIOTR. As to conditions: 80 g/ha. The essentials: as §1
Assay [9] relates to Abutilon theophrasti. Nature of the assay: Post-emergence herbicidal action against ABUTH. The essentials: (§2)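 Spray, one-leaf stage: WP or EC compound in water, 600–800 l/ha, 0.2% wetting agent. Plants held about 3 weeks in the greenhouse, then visually rated in percent of kill compared with untreated controls.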
Assay [10] concerns Amaranthus retroflexus. Nature of the assay: Post-emergence herbicidal action against AMARE. As to conditions: visual assessment about 3 weeks after treatment. The essentials:
as §2

Assay [11] concerns Echinochloa crus-galli. Briefly: Post-emergence herbicidal action against ECHCG. As to conditions: visual assessment about 3 weeks after treatment. The essentials: as §2
Assay [12] concerns Digitaria sanguinalis. Briefly: Post-emergence herbicidal action against DIGSA. Here is the method:
Seeds of monocotyledonous and dicotyledonous weed and crop plants are laid out in sandy loam soil in wood-fiber pots, covered with soil and cultivated in a greenhouse under good growth conditions. 2 to 3 weeks after sowing, the test plants are treated at the one-leaf stage. The compounds of the invention, formulated in the form of wettable powders (WP) or as emulsion concentrates (EC), are then sprayed onto the green parts of the plants in the form of an aqueous suspension or emulsion at a water application rate equivalent to 600 to 800 l/ha, with addition of 0.2% wetting agent. After the test plants have been left to stand in the greenhouse under optimal growth conditions for about 3 weeks, the action of the preparations is assessed visually in comparison to untreated controls (herbicidal action in percent (%): 100% activity=the plants have died, 0% activity=like control plants). […] The tables below illustrate, in an illustrative manner, the post-emergence herbicidal action of the compounds of the invention, the herbicidal activity being stated in percent.

The subject of assay [13] is Setaria viridis. Briefly: Post-emergence herbicidal action against SETVI. The settings on record: visual assessment about 3 weeks after treatment. The essentials: as §2
The subject of assay [14] is Veronica persica. Nature of the assay: Post-emergence herbicidal action against VERPE. As to conditions: 20 g/ha, visual assessment about 3 weeks after treatment. The method, boiled down: as §2
The subject of assay [15] is Viola tricolor. Nature of the assay: Post-emergence herbicidal action against VIOTR. The method, boiled down:
as §2

For assay [16], the system named is Veronica persica. Nature of the assay: Pre-emergence herbicidal action against VERPE. As to conditions: 80 g/ha. The essentials: as §1
Assay [17] deals with Alopecurus myosuroides. Briefly: Post-emergence herbicidal action against ALOMY. The essentials:
as §2

Assay [18] deals with Avena fatua. Nature of the assay: Post-emergence herbicidal action against AVEFA. As to conditions: 20 g/ha, visual assessment about 3 weeks after treatment. The method, boiled down: as §2
A further assay has as its system Pharbitis purpurea. Briefly: Post-emergence herbicidal action against PHBPU. As to conditions: visual assessment about 3 weeks after treatment. The essentials: as §2

Structures are written as SMILES.

On to `Cc1c(C(=O)Nc2nnnn2C)ccc(C(F)(F)F)c1C(=O)N(C)C` [Example 1-19], for which the “Pre-emergence action against ABUTH” value with Abutilon theophrasti [1] (20 g/ha) worked out at 90%; in the assay on Abutilon theophrasti [1] (80 g/ha) it was 100%. In addition, the “Pre-emergence action against ALOMY” value in the assay on Alopecurus myosuroides [2] was 80%. The “Pre-emergence action against AMARE” value in the assay with Amaranthus retroflexus [3] (20 g/ha) and with Amaranthus retroflexus [3] (80 g/ha) was 100% in each case. Further, the “Pre-emergence action against AVEFA” value with Avena fatua [4] was 80%. For the same compound, the “Pre-emergence action against ECHCG” value with Echinochloa crus-galli [5] is recorded as 90%. For the same compound, the “Pre-emergence action against MATIN” value in the assay on Matricaria inodora worked out at 90%. In addition, in the assay on Digitaria sanguinalis [6] (80 g/ha), the “Pre-emergence action against DIGSA” value worked out at 100%. Moreover, the “Pre-emergence action against SETVI” value in the assay with Setaria viridis [7] is recorded as 100%. Further, the “Pre-emergence action against VIOTR” value in the assay on Viola tricolor [8] stood at 100%. Further, the “Post-emergence action against ABUTH” value in the assay on Abutilon theophrasti [9] (5 g/ha) was found to be 90%; in the assay on Abutilon theophrasti [9] (20 g/ha) it was 100%. Further, the “Post-emergence action against AMARE in %” value with Amaranthus retroflexus [10] (20 g/ha) was determined as 100%. In the assay on Echinochloa crus-galli [11] (20 g/ha), the “Post-emergence action against ECHCG in %” value is 90%. Also, the “Post-emergence action against DIGSA in %” value with Digitaria sanguinalis [12] (5 g/ha) and in the assay on Digitaria sanguinalis [12] (20 g/ha) was 90% throughout. Moreover, the “Post-emergence action against SETVI in %” value in the assay with Setaria viridis [13] (5 g/ha) and in the assay with Setaria viridis [13] (20 g/ha) was 100% each time. In addition, in the assay with Veronica persica [14], the “Post-emergence action against VERPE in %” value is 80%. Also, in the assay with Viola tricolor [15] (20 g/ha), the “Post-emergence action against VIOTR in %” value came out at 80%.

On to `CCN(CC)C(=O)c1c(C(F)(F)F)ccc(C(=O)Nc2nnnn2C)c1C` [Example 1-31], for which the “Pre-emergence action against ABUTH” value in the assay with Abutilon theophrasti [1] (80 g/ha) worked out at 100%. Also, in the assay with Alopecurus myosuroides [2], the “Pre-emergence action against ALOMY” value was determined as 100%. Further, the “Pre-emergence action against AMARE” value with Amaranthus retroflexus [3] (20 g/ha) and in the assay with Amaranthus retroflexus [3] (80 g/ha) was 100% throughout. Besides, the “Pre-emergence action against ECHCG” value in the assay with Echinochloa crus-galli [5] came out at 80%. Also, the “Pre-emergence action against MATIN” value with Matricaria inodora was 100%. Further, the “Pre-emergence action against DIGSA” value in the assay with Digitaria sanguinalis [6] (20 g/ha) and with Digitaria sanguinalis [6] (80 g/ha) was 100% throughout. The “Pre-emergence action against SETVI” value in the assay with Setaria viridis [7] worked out at 100%. Further, the “Pre-emergence action against VERPE” value with Veronica persica [16] turned out to be 90%. In addition, in the assay on Viola tricolor [8], the “Pre-emergence action against VIOTR” value was found to be 100%. The results for the “Post-emergence action against ALOMY” value in the assay on Alopecurus myosuroides [17] (5 g/ha) and with Alopecurus myosuroides [17] (20 g/ha) were 80% and 90%, respectively. The “Post-emergence action against AMARE in %” value with Amaranthus retroflexus [10] (5 g/ha) and in the assay on Amaranthus retroflexus [10] (20 g/ha) was 90% throughout. Moreover, in the assay with Avena fatua [18], the “Post-emergence action against AVEFA in %” value was 80%. In addition, the “Post-emergence action against ECHCG in %” value in the assay on Echinochloa crus-galli [11] (5 g/ha) and in the assay with Echinochloa crus-galli [11] (20 g/ha) was 90% in each case. Moreover, the “Post-emergence action against PHBPU in %” value in the assay on Pharbitis purpurea (5 g/ha) and with Pharbitis purpurea (20 g/ha) was 90% each time. In addition, the “Post-emergence action against DIGSA in %” value with Digitaria sanguinalis [12] (5 g/ha) is reported as 80%; with Digitaria sanguinalis [12] (20 g/ha), 90%. The “Post-emergence action against SETVI in %” value with Setaria viridis [13] (5 g/ha) stood at 90%; in the assay on Setaria viridis [13] (20 g/ha) it was 100%. The “Post-emergence action against VIOTR in %” value in the assay on Viola tricolor [15] (5 g/ha) stood at 80%; in the assay with Viola tricolor [15] (20 g/ha), 90%.
